The values that follow come from PubChem BioAssay (NCI).

Each structure is given as a SMILES string.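 Step 1: Grow cells in 96-well plates. Step 2: Expose to compound for 48 hours at 5 concentrations. Step 3: Interpolate endpoints linearly; if unreached, use highest concentration. GI50: concentration for 50% inhibition of growth. TGI marks complete inhibition of growth.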

What all share (assay): growth of human tumour cells (NCI), 48 h
Assay [1] relates to SNB-19 CNS.
The subject of assay [2] is RPMI-8226 leukemia.
The subject of assay [3] is CCRF-CEM leukemia.
The subject of assay [4] is DU-145 prostate.
For assay [5], the system named is SK-MEL-2 melanoma.
Assay [6] deals with SK-OV-3 ovarian.
Assay [7] concerns CAKI-1 renal.
Assay [8] concerns SW-620 colon.
Assay [9] has as its system SF-268 CNS.
Assay [10] deals with HOP-92 NSCLC.

For the compound `O=C(Nc1cccc(-n2cc(-c3ccncc3)c(-c3cc(O)cc(Cl)c3)n2)c1)c1cc(C(F)(F)F)cc(C(F)(F)F)c1`, the GI50 was 7.03 µM in assay [1]; 2.5 µM in assay [2]; 2.68 µM in [3]; 5.19 µM in assay [4]; 3.28 µM in [5]; 10.8 µM in [6]. Besides, the GI50 in [7] was 3.67 µM; in assay [8] it was 4.48 µM; in assay [9] it was 6.38 µM. For the same compound, the TGI in [1] is more than 100 µM; in assay [2], 12.7 µM; in assay [3], more than 100 µM; in assay [4] it was more than 100 µM; in assay [5] it was 9.51 µM; in assay [6], more than 100 µM. The TGI in assay [7], in [8] and in assay [9] was more than 100 µM each time.
Regarding `C(=N/N(Cc1ccccc1)Cc1ccccc1)/c1ccccc1`, the GI50 in assay [1] is more than 100 µM; in [10], 53.3 µM; in assay [2], 51.8 µM; in assay [4] it was more than 100 µM; in [5], 25 µM; in assay [6], more than 100 µM. Moreover, the GI50 in assay [7], in assay [8] and in [9] was more than 100 µM each time. The TGI in [1] was more than 100 µM; in [10] it was more than 100 µM; in assay [2], more than 100 µM; in [4], more than 100 µM; in assay [5] it was 72.6 µM; in [6], more than 100 µM. For the same compound, the TGI in assay [7], in assay [8] and in [9] was more than 100 µM in each case.
With `CC1OC(OC2C(O)CC(OC3C(O)CC(OC4CCC5(C)C(CCC6C5CC(O)C5(C)C(C7=CC(=O)OC7)CCC65O)C4)OC3C)OC2C)CC(O)C1O` (stereo not drawn), the GI50 is 0.113 µM in assay [1]; 0.0921 µM in assay [2]; 0.0358 µM in assay [3]; 0.0308 µM in assay [4]; 0.128 µM in assay [5]; 0.0513 µM in assay [6]. Besides, the GI50 was 0.0416 µM in assay [7], 0.0423 µM in assay [8] and 0.0359 µM in assay [9]. Also, the TGI in [1] amounted to 0.238 µM; in assay [3], 0.245 µM; in assay [4], 0.0903 µM; in [5], 0.346 µM; in [6] it was 0.171 µM; in assay [7], 0.204 µM. Besides, the values for the TGI in [8] and in [9] were 0.165 µM and 0.133 µM, respectively.
Regarding `OC(C#Cc1ccccc1)(c1ccccc1)c1ccccc1`, the TGI is more than 100 µM in assay [1]; 47.4 µM in assay [2]; 35.3 µM in assay [3]; more than 100 µM in assay [4]; 55.4 µM in assay [5]; more than 100 µM in assay [6]. Further, the TGI in [7] is 61.8 µM; in assay [8], more than 100 µM; in assay [9], 54.9 µM.
As to `C/C(=C\c1cnc(C)s1)[C@@H]1C[C@@H]2O[C@@H]2CCC[C@H](C)[C@H](O)[C@@H](C)C(=O)C(C)(C)[C@@H](O)CC(=O)O1`, the GI50 in assay [1] was less than 0.01 µM; in [10], less than 0.0162 µM; in assay [2], less than 0.01 µM; in assay [3], less than 0.01 µM; in assay [4], less than 0.01 µM; in [5] it was less than 0.0146 µM. The GI50 is less than 0.0125 µM in assay [6] and less than 0.01 µM in [8]. Moreover, the TGI in assay [1], in assay [10], in [2], in assay [3], in assay [4] and in assay [5] was more than 100 µM throughout. Besides, the TGI in [6] and in assay [8] was more than 100 µM throughout.
Consider `COc1ncnc(NS(=O)(=O)c2ccc(N=C3C(=O)N(CN4CCN(c5c(F)cc6c(=O)c(C(=O)O)cn(C7CC7)c6c5OC)CC4C)c4ccc(Br)cc43)cc2)c1OC` (stereo not drawn), for which the GI50 was 19.4 µM in assay [1]; 0.176 µM in assay [10]; 5.54 µM in assay [2]; 10.9 µM in assay [4]; 20.5 µM in [5]; 6.21 µM in assay [7]. The GI50 in [8] is 9.41 µM; in [9] it was 5.58 µM. The TGI in [1] is more than 50 µM; in [10], 0.477 µM; in [2], 22.3 µM; in assay [4] it was 37.3 µM; in assay [5] it was more than 50 µM; in [7], more than 50 µM. Also, the TGI in assay [8] and in [9] was more than 50 µM each time.
Turning to `O=C(CCCCCCN1CC(=O)N2[C@@H](c3ccc(Cl)c(Cl)c3)c3[nH]c4ccccc4c3C[C@H]2C1=O)NO`, the GI50 is 4.54 µM in assay [1]; 1.59 µM in [10]; 1.07 µM in assay [3]; 4.01 µM in [4]; 4.07 µM in assay [5]; 4.58 µM in assay [6]. Moreover, the GI50 in [7] is 3.43 µM; in assay [8] it was 1.97 µM; in [9], 4.66 µM. The TGI in assay [1] is 12.5 µM; in assay [10], 7.41 µM; in [3], more than 33.3 µM; in assay [4], 15.3 µM; in assay [5], 13.2 µM; in assay [6] it was 9.81 µM. Besides, the figures for the TGI in assay [7], in [8] and in assay [9] were 8.71 µM, 9.3 µM and 10.5 µM, respectively.
Turning to `COC1C(N)C(OC2C(Oc3cccc4c(O)c5c(=O)oc6ccc(C)c7c(=O)oc(c34)c5c67)OC(C)C(O)C2(C)O)OC(C)C1O` (stereo not drawn), the TGI in assay [1] stood at 0.469 µM; in assay [10], 0.0653 µM; in assay [2], 12.4 µM; in [3], 3.66 µM; in assay [4], 1.33 µM; in assay [5] it was 0.0378 µM. In addition, the TGI came out at 1.45 µM in assay [7], 1.61 µM in assay [8] and 0.104 µM in assay [9].
`Cc1ccc(/C(C#N)=C/c2cccc([N+](=O)[O-])c2)cc1`: the TGI in [1], in assay [10], in assay [2], in assay [4], in assay [5] and in assay [6] was more than 100 µM each time. Moreover, the TGI in assay [7], in [8] and in assay [9] was more than 100 µM in each case.
Consider `CN(CCNCc1ccccn1)CCNCc1ccccn1`, for which the GI50 was 5.29 µM in [1]; 2.02 µM in assay [10]; 3.41 µM in assay [2]; 3.87 µM in assay [3]; 3.6 µM in [4]; 2.24 µM in [6]. The GI50 was 3.18 µM in [8] and 3.96 µM in [9]. For the same compound, the TGI in assay [1] is 18.5 µM; in assay [10] it was 5.27 µM; in assay [2], 67.6 µM; in assay [3], more than 100 µM; in [4] it was 12.4 µM; in [6], 5.27 µM. In addition, the TGI in assay [8] was 11.3 µM; in assay [9], 15.4 µM.
`CCCCCO/N=C\c1c2c(O)c3c(O)c(C)c4c(c3c1O)C(=O)C(C)(O/C=C\C(OC)C(C)C(OC(C)=O)C(C)C(O)C(C)C(O)C(C)/C=C\C=C(\C)C(=O)N2)O4` (stereo not drawn): the GI50 is 1.67 µM in assay [1]; 2.34 µM in assay [2]; 2.92 µM in assay [3]; 1.93 µM in assay [4]; 2.29 µM in [6]; 1.91 µM in assay [7]. Further, the GI50 is 1.68 µM in [8] and 1.66 µM in [9]. For the same compound, the TGI in assay [1] was 3.19 µM; in assay [2], 6.69 µM; in assay [3], 10.2 µM; in [4] it was 4.29 µM; in assay [6], 6.84 µM; in [7], 4.5 µM. Besides, the results for the TGI in [8] and in assay [9] were 3.04 µM and 3.23 µM, respectively.
On to `O=C(O)CCC(=O)c1ccc2sc3ccccc3c2c1`, for which the TGI in assay [1], in assay [2], in assay [4], in [5], in assay [6] and in assay [7] was more than 100 µM in each case. Also, the TGI in [8] and in [9] was more than 100 µM in each case.
Regarding `O=C(O)c1cccc(C(=O)O)c1S(=O)Cc1ccccc1` (stereo not drawn), the TGI in assay [1], in assay [10], in [2], in assay [4], in assay [5] and in [6] was more than 100 µM each time. Further, the TGI in [7], in assay [8] and in assay [9] was more than 100 µM each time.
Turning to `O=C1c2sccc2-c2cccc3cccc1c23` (tested in a mixture with another compound), the TGI in assay [1] is 35 µM; in [2], 0.668 µM; in assay [3] it was 12.8 µM; in [4] it was 7.03 µM; in [5], more than 100 µM; in [6] it was more than 100 µM. For the same compound, the TGI is 24.2 µM in assay [7], 17.2 µM in assay [8] and more than 100 µM in [9].
Turning to `COc1ccc(NC(=O)C2CCC(CNS(=O)(=O)c3ccccc3)CC2)cc1OC` (stereo not drawn), the GI50 in assay [10], in assay [2], in [3], in [4], in assay [5] and in assay [7] was more than 100 µM throughout. Besides, the GI50 in assay [8] is more than 100 µM; in [9] it was 74.2 µM. The TGI in assay [10], in [2], in [3], in assay [4], in assay [5] and in assay [7] was more than 100 µM in each case. The TGI in assay [8] and in assay [9] was more than 100 µM in each case.
With `NC(=O)c1csc(C2OC(COP(=O)(O)CP(=O)(O)OCC3OC(n4cnc5c(N)ncnc54)C(O)C3O)C(O)C2O)n1` (stereo not drawn), the TGI in assay [1], in assay [10], in [2], in assay [3], in assay [5] and in [6] was more than 100 µM in each case. In addition, the TGI in assay [7], in assay [8] and in assay [9] was more than 100 µM in each case.
`CC1=C(CC(=O)c2cccc([N+](=O)[O-])c2)C(=O)c2ccccc2C1=O`: the GI50 in assay [1] is more than 100 µM; in assay [10] it was 4.38 µM; in [2] it was 4.42 µM; in assay [3], 3.19 µM; in assay [4], 7.55 µM; in assay [6] it was 28.6 µM. Further, the GI50 is 21.7 µM in [7], 4.01 µM in assay [8] and 9.19 µM in assay [9]. Moreover, the TGI is more than 100 µM in assay [1]; 17.7 µM in assay [10]; 37.4 µM in assay [2]; 19.3 µM in [3]; 20.1 µM in [4]; 99.2 µM in [6]. The figures for the TGI in [7], in assay [8] and in assay [9] were more than 100 µM, 18.9 µM and 26.9 µM, respectively.
Consider `Cc1cc(N(CCCNc2ccnc3cc(Cl)ccc23)Cc2ccco2)nc(N2CCN(C)CC2)n1`, for which the GI50 in assay [1] is 5 µM; in assay [10], 1.92 µM; in [2] it was 2.09 µM; in assay [3], 2.84 µM; in assay [4] it was 5.69 µM; in assay [5] it was 1.95 µM. The GI50 in [6] was 5.99 µM; in [8], 2.82 µM; in [9], 2.9 µM. Moreover, the TGI in assay [1] stood at 16.9 µM; in assay [10] it was 4.99 µM; in assay [2], 5.15 µM; in [3], 10.2 µM; in assay [4], 18.8 µM; in assay [5], 4.21 µM. In addition, the TGI worked out at 31.2 µM in assay [6], 12.2 µM in assay [8] and 15.7 µM in assay [9].
Regarding `O=C1Nc2ccccc2N=CC1NC(=O)C(c1ccccc1)c1ccccc1` (stereo not drawn), the TGI in assay [1], in [10], in assay [2], in assay [3], in assay [5] and in assay [6] was more than 100 µM each time. For the same compound, the TGI in assay [7], in [8] and in [9] was more than 100 µM in each case.
